# According to publication PMC9785397, “Exploiting Conserved Quorum Sensing Signals in Streptococcus mutans and Streptococcus pneumoniae” (Microorganisms, 2022):
# How the values were obtained:
# [1] = system: comE gene; test: qRT-PCR, comE gene expression; format: cell-based, Streptococcus mutans; settings: CSP1 20 μM, planktonic, 8 h, qPCR
# Experimental: (§1) S. mutans was cultured in BHI supplemented with peptides or the vehicle. Cultures were centrifuged, and total RNA was isolated and purified from the bacterial pellets using the GRS Total RNA Kit—Bacteria (GK16.0100; GRISP Research Solution, Porto, Portugal), following the manufacturer’s instructions. Purified RNA was subjected to DNase I treatment to remove contaminating DNA. The RNA yield and purity were assessed by measuring the absorbance, and only samples with a ratio of 260/280 nm in the 1.8–2 range were used. cDNA was generated using the cDNA RT kit with an RNAse inhibitor (Applied Biosystems; Monza, Milan). Quantitative PCR (qRT-PCR) was performed using SYBR green mixture (iScript One Step RT-PCR kit; Bio-Rad, Segrate, Milan) to determine the transcript levels of genes using the oligonucleotides listed in Table 3. The gyrA gene served as the housekeeping gene.
# [2] = system: S. mitis; test: microbe, parasite or virus in culture; format: cell-based, Streptococcus mitis; settings: peptides 0–50 μM, 16 h, 37 °C, microaerophilic, A620 nm, three separate experiments
# Excerpt: (§2) Streptococcus mutans Clarke (strain designation NCTC 10449), Pseudomonas aeruginosa (Schroeter) Migula (strain designation PAO1), Fusobacterium nucleatum, subspecies nucleatum (strain VPI 4355), and Porphyromonas gingivalis (strain 2561) were purchased from ATCC (LGC Standards Srl, Milan, Italy). Streptococcus mitis, Streptococcus oralis, and Streptococcus sanguinis were obtained from clinical isolates and characterized by morphological, biochemical, and molecular typing. S. mutans, S. mitis, S. oralis, and S. sanguinis were maintained in Brain Heart Infusion (BHI) broth or agar under microaerophilic conditions. P. aeruginosa was maintained in trypticase soy (TS) agar or broth. F. nucleatum was maintained in TS agar or broth with defibrinated sheep blood under anaerobic conditions. P. gingivalis was maintained in ATCC Medium 2722 supplemented with TS broth or agar under anaerobic conditions. Before the experiments, bacterial cultures were inoculated in fresh media (dilution 1:100) and grown for 16 h at 37 °C.
# (§3) The antimicrobial activities of the tested peptides were assessed through the determination of the minimum inhibitory concentration (MIC) standardized by the Clinical and Laboratory Standards Institute. Bacterial inocula were diluted in 10 mL of MHB […]. The concentration of the bacteria was adjusted to 0.5 McFarland standard, and the bacteria were dispensed in 96-well microtiter plates (final bacterial concentration: 1 × 10^4 CFU/well). Peptides were dissolved in sterile water (stock concentration: 2 mM) and added at final concentrations ranging from 0 to 50 µM. Plates were incubated at 37 °C for 16 h. At the end of incubation, bacterial growth was recorded using a microplate reader (Varioskan Lux Reader; Thermo Fisher Scientific, Milan, Italy) by quantifying the adsorption at 620 nm. Cultures were then opportunely diluted and seeded on agar plates. Bacterial cultures inoculated with the highest final concentration of the vehicle (sterile water) or chlorhexidine hydrochloride salt (CHX, concentration range: 0.05 to 500 μg/mL; Merck, Milan, Italy) were included as controls in each test. Experiments were performed in triplicate.
# [3] = system: S. mutans; test: microbe, parasite or virus in culture; format: cell-based, Streptococcus mutans; settings: peptides 0–50 μM, 16 h, 37 °C, microaerophilic, A620 nm, three separate experiments
# Excerpt: as §2, §3
# [4] = system: S. mutans bacteriocin production against F. nucleatum; test: Bacteriocin overlay assay, S. mutans spotted on F. nucleatum; format: cell-based, Streptococcus mutans; settings: CSP1 20 μM, 16 h, 37 °C, anaerobic
# Experimental: (§4) During the formation of complex biofilm such as dental plaque, the ability of S. mutans to compete with other commensal species determines the success of the cariogenesis process. S. mutans uses antibacterial peptides, namely, bacteriocins, to overcome and subvert the composition of dental microbiota. We investigated the production of bacteriocins using the overlay assay. Overnight cultures of S. mitis, S. oralis, S. sanguinis, P. aeruginosa, F. nucleatum, or P. gingivalis were diluted 1:100 in BHI or TS broth and incubated at 37 °C until they reached an OD620 of 0.3. Cultures were added with agar (BD Difco^TM Agar) at the final concentration of 1.5% w/v and transferred in plates. Overnight cultures of S. mutans were diluted 1:100 in BHI and added with peptides (20 μM) or the vehicle with or without CSP1. Culture media were supplemented with agar to reach the final concentration of 0.7% w/v. The solutions were spotted on the surface of agar plates prepared as described above. […]
# (§5) Spots (10 for each experimental group) were acquired and analyzed using NIH Image J software (version 1.53t August 2022, https://imagej.nih.gov/ij/index.html; accessed on 7 September 2022). The appearance of a clear area on the plate (bacterial growth inhibition) was evaluated as indicative of bacteriocin activity. The diameters of the area were measured in a blinded fashion.
# [5] = system: P. aeruginosa; test: microbe, parasite or virus in culture; format: cell-based, Pseudomonas aeruginosa; settings: peptides 0–50 μM, 16 h, 37 °C, aerobic, A620 nm, three separate experiments
# Excerpt: as §2, §3
# [6] = system: S. oralis; test: microbe, parasite or virus in culture; format: cell-based, Streptococcus oralis; settings: peptides 0–50 μM, 16 h, 37 °C, microaerophilic, A620 nm, three separate experiments
# Excerpt: as §2, §3
# [7] = system: S. mutans bacteriocin production against S. oralis; test: Bacteriocin overlay assay, S. mutans spotted on S. oralis; format: cell-based, Streptococcus mutans; settings: CSP1 20 μM alone vs vehicle, 16 h, 37 °C, microaerophilic
# Experimental: (§6) During the formation of complex biofilm such as dental plaque, the ability of S. mutans to compete with other commensal species determines the success of the cariogenesis process. S. mutans uses antibacterial peptides, namely, bacteriocins, to overcome and subvert the composition of dental microbiota. We investigated the production of bacteriocins using the overlay assay. Overnight cultures of S. mitis, S. oralis, S. sanguinis, P. aeruginosa, F. nucleatum, or P. gingivalis were diluted 1:100 in BHI or TS broth and incubated at 37 °C until they reached an OD620 of 0.3. Cultures were added with agar (BD Difco^TM Agar) at the final concentration of 1.5% w/v and transferred in plates. Overnight cultures of S. mutans were diluted 1:100 in BHI and added with peptides (20 μM) or the vehicle with or without CSP1. Culture media were supplemented with agar to reach the final concentration of 0.7% w/v. The solutions were spotted on the surface of agar plates prepared as described above. The plates were kept on the benchtop for 30 min, allowing the agar containing S. mutans to solidify, and then incubated at 37 °C for 16 h under microaerophilic or anaerobic conditions, as required.
# as §5
# [8] = system: S. mutans bacteriocin production against S. mitis; test: Bacteriocin overlay assay, S. mutans spotted on S. mitis; format: cell-based, Streptococcus mutans; settings: CSP1 20 μM alone vs vehicle, 16 h, 37 °C, microaerophilic
# Experimental: as §6, §5
# [9] = system: comD gene; test: qRT-PCR, comD gene expression; format: cell-based, Streptococcus mutans; settings: CSP1 20 μM, planktonic, 8 h, qPCR
# Experimental: as §1
# [10] = system: comC gene; test: qRT-PCR, comC gene expression; format: cell-based, Streptococcus mutans; settings: CSP1 20 μM, 8 h, qPCR
# Experimental: as §1
# [11] = system: S. mutans bacteriocin production against P. gingivalis; test: Bacteriocin overlay assay, S. mutans spotted on P. gingivalis; format: cell-based, Streptococcus mutans; settings: CSP1 20 μM, 16 h, anaerobic
# Experimental: as §4, §5
# [12] = system: S. sanguinis; test: microbe, parasite or virus in culture; format: cell-based, Streptococcus sanguinis; settings: peptides 0–50 μM, 16 h, 37 °C, microaerophilic, A620 nm, three separate experiments
# Excerpt: as §2, §3
# [13] = system: bip gene; test: qRT-PCR, bip gene expression; format: cell-based, Streptococcus mutans; settings: CSP1 20 μM vs vehicle, 2–24 h, maximum at 8 h, qPCR
# Experimental: as §1
# [14] = system: vicK gene; test: qRT-PCR, vicK gene expression in biofilm; format: cell-based, Streptococcus mutans; settings: CSP1 20 μM vs vehicle, 16 h, qPCR
# Experimental: as §1
smiles,measurement,setting,value
CC[C@H](C)[C@H](NC(=O)[C@H](Cc1ccccc1)NC(=O)[C@H](CC(=O)O)NC(=O)[C@H](CCCNC(=N)N)NC(=O)[C@H](Cc1ccccc1)NC(=O)[C@H](Cc1ccccc1)NC(=O)[C@H](CCCCN)NC(=O)[C@H](CO)NC(=O)[C@H](CC(C)C)NC(=O)[C@H](CCCNC(=N)N)NC(=O)[C@H](CCSC)NC(=O)[C@@H](N)CCC(=O)O)C(=O)N[C@@H](CC(C)C)C(=O)N[C@@H](CCC(N)=O)C(=O)N[C@@H](CCCNC(=N)N)C(=O)N[C@@H](CCCCN)C(=O)N[C@@H](CCCCN)C(=O)O [CSP1],Expression of comE in S. mutans,[1],increased the expression
same,"Minimum inhibitory concentration (MIC), S. mitis",[2],25 µM
same,"Minimum inhibitory concentration (MIC), S. mutans",[3],30 µM
same,Growth inhibition of F. nucleatum by S. mutans stimulated with peptide,[4],inhibited the growth
same,"Minimum inhibitory concentration (MIC), P. aeruginosa",[5],>50 µM
same,"Minimum inhibitory concentration (MIC), S. oralis",[6],25 µM
same,Growth inhibition of co-cultured S. oralis by S. mutans stimulated with peptide (diameter of clear area),[7],significantly inhibited the growth
same,Growth inhibition of co-cultured S. mitis by S. mutans stimulated with peptide (diameter of clear area),[8],significantly inhibited the growth
same,Expression of comD in S. mutans,[9],increased the expression
same,Expression of comC in S. mutans,[10],no effects
same,Growth inhibition of P. gingivalis by S. mutans stimulated with peptide,[11],no effects
same,"Minimum inhibitory concentration (MIC), S. sanguinis",[12],21 µM
same,Expression of bip in S. mutans,[13],induced the expression
same,Expression of vicK in S. mutans biofilm,[14],significantly increased
